In the assay the target is T1, CETP (Homo sapiens, UniProt P11597).
T1 construct: from tissue; host or cells: plasma of Caucasian male subjects dosed with Compound A or placebo
T1 sequence (P11597 18-493): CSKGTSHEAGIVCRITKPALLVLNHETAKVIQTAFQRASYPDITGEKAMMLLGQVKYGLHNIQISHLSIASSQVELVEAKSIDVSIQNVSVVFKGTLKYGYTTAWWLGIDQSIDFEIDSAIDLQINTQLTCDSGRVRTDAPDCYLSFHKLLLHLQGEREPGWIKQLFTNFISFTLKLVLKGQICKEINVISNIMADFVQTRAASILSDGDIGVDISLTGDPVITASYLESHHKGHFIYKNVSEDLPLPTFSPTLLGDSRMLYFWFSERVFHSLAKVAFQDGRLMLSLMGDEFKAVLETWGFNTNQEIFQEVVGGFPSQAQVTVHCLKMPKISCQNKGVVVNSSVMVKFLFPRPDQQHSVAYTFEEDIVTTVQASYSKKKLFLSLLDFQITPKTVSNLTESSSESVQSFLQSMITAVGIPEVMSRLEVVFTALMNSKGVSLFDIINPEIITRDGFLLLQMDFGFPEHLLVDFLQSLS
Put plainly: In vitro CETP assay: 3H-labeled CE transfer from HDL to VLDL/LDL in human plasma. The class given is biochemical. As to conditions: 24 h pre-incubation at 37° C. Here is the method:
Human blood was obtained from healthy male volunteers using 0.1% EDTA as an anticoagulant, and centrifuged at 3,000 rpm for 15 minutes at 4° C. Human plasma was pooled, and then used for the preparation of ^3H-labeled HDL or stored at −80° C. for CETP assay until use. The ^3H-labeled HDL was prepared with human plasma as described by Glenn and Melton (Methods in enzymology. 263; 339-351, 1996). The specific gravity of plasma was measured by a hydrometer, and the density was adjusted to 1.125 g/mL by adding solid KBr. After centrifugation at 100,000 rpm for 4 hours at 12° C. (rotor: 100.4, Optima TLX, Beckman), d>1.125 g/mL fraction was dialyzed against 4 L of Tris-saline-EDTA buffer (TSE; 50 mmol/L Tris, 150 mmol/L NaCl, 2 mmol/L EDTA, pH7.4) for 18 hours at 4° C. [1,2-^3H(N)]-Cholesterol (37 MBq/mL) was added to the dialyzed plasma fraction at the amount of 2 μCi/mL. The tube was tightly sealed under N2 gas stream and incubated at 37° C. for 18 hours with gently stirring to allow esterification of radio-labeled cholesterol by endogenous LCAT. The incubated plasma fraction was adjusted to d=1.21 g/mL with solid KBr, and centrifuged at 100,000 rpm, 12° C. for 5 hours. ^3H-labeled HDL fraction was dialyzed against 2 L of TSE at 4° C. for 18 hours. The radioactivity of ^3H-labeled HDL was counted in a liquid scintillation counter. ^3H-labeled HDL was stored at 4° C. until use.
CETP activity was determined as the rate of ^3H-labeled CE transfer from donor HDL to acceptor VLDL/LDL. Human plasma (94 μL) was pre-incubated with compounds dissolved in DMSO (1 μL) 24 hours at 37° C., and then incubated for 4 hours at 4° C. or 37° C. with 5 μL of ^3H-labeled HDL. One hundred μL of phosphotungstate/MgCl2 reagent (Wako pure chemical) were added to precipitate apoB-containing lipoproteins. After centrifugation at 3,000 rpm for 10 minutes at room temperature, the radioactivity of the supernatant was counted in a liquid scintillation counter. […] The concentration achieving 50% inhibition of CETP activity (IC50) was estimated.

Consider `CCOC(=O)N1c2ccc(C(F)(F)F)cc2[C@@H](N(Cc2cc(C(F)(F)F)cc(C(F)(F)F)c2)c2ncc(OCCCC(=O)O)cn2)C[C@H]1CC` [Compound A, {4-[(2-{[3,5-bis(trifluoromethyl)benzyl][(2R,4S)-1-(ethoxycarbonyl)-2-ethyl-6-(trifluoromethyl)-1,2,3,4-tetrahydroquinolin-4-yl]amino}pyrimidin-5-yl)oxy]butanoic acid}], for which 0.064 µM corresponded to half-maximal inhibition (IC50).

The record behind these values is patent publication US11642344B2, “Cholesteryl ester transfer protein (CETP) inhibitor and pharmaceutical compositions comprising said inhibitor for use in the treatment or prevention of cardiovascular diseases” (NewAmsterdam Pharma B.V., priority 2014, dated 2023).
